Experiments:
corn = assay: Test B pre/postemergence corn; type: in vivo, Zea mays
How it was run: (§1)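 Herbicidal effect was estimated by eye on a ten-point control scale after plants spent twelve to sixteen days in a greenhouse following soil or foliar treatment. Foliar sprays targeted plants at one to four leaves; all doses were formulated in a non-phytotoxic solvent with surfactant.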

velvetleaf = assay: Test B pre/postemergence velvetleaf; type: in vivo, Abutilon theophrasti
How it was run: as §1

surinam grass = assay: Test B pre/postemergence surinam grass; type: in vivo, Brachiaria decumbens
How it was run: as §1

sugar beet = assay: Test B pre/postemergence sugar beet; type: in vivo, Beta vulgaris
How it was run: as §1

bedstraw = assay: Test B pre/postemergence bedstraw; type: in vivo, Galium aparine
How it was run: as §1

cocklebur = assay: Test B pre/postemergence cocklebur; type: in vivo, Xanthium strumarium
How it was run: as §1

bamyardgrass = assay: Test B flood test barnyardgrass; type: in vivo, Echinochloa crus-galli
How it was run: (§2)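 Read-out is a visual response score from 0 (no effect) to 10 (complete control), assigned by comparison with untreated controls. Treatment was applied at the 2-leaf stage, and plants stayed in the greenhouse for twelve to sixteen days before scoring.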

rape = assay: Test B pre/postemergence rape; type: in vivo, Brassica napus
How it was run: as §1

purple nutsedge = assay: Test B pre/postemergence purple nutsedge; type: in vivo, Cyperus rotundus
How it was run: as §1

giant foxtail = assay: Test B pre/postemergence giant foxtail; type: in vivo, Setaria faberii
How it was run: as §1

blackgrass = assay: Test B pre/postemergence blackgrass; type: in vivo, Alopecurus myosuroides
How it was run: as §1

morningglory = assay: Test B pre/postemergence morningglory; type: in vivo, Ipomoea hederacea
How it was run: as §1

duck salad = assay: Test B flood test duck salad; type: in vivo, Heteranthera limosa
How it was run: as §2

pigweed = assay: Test B pre/postemergence pigweed; type: in vivo, Amaranthus retroflexus
How it was run: as §1

rice = assay: Test B flood test rice; type: in vivo, Oryza sativa
How it was run: as §2

[1] = Preemergence, Rate 62 g/ha, scale of 0 to 10 where 0 is no effect and 10 is complete control
[2] = Preemergence, Rate 250 g/ha, scale of 0 to 10 where 0 is no effect and 10 is complete control
[3] = Preemergence, Rate 500 g/ha, scale of 0 to 10 where 0 is no effect and 10 is complete control
[4] = Rate 62 g/ha, Postemergence, scale 0 to 10 (0 no effect, 10 complete control)
[5] = Rate 125 g/ha, Postemergence, scale of 0 to 10 where 0 is no effect and 10 is complete control
[6] = Rate 250 g/ha, Postemergence, scale of 0 to 10 where 0 is no effect and 10 is complete control
[7] = Rate 500 g/ha, Postemergence, scale 0 to 10, 0 no effect, 10 complete control
[8] = Pre-emergence, Rate 1000 g/ha, scale 0 to 10 (0 no effect, 10 complete control)
[9] = Rate 62 g/ha, headed Pre-emergence (flood test species), scale 0 to 10 (0 no effect, 10 complete control)
[10] = Rate 125 g/ha, Pre-emergence, flood test species, scale 0 to 10 where 0 is no effect and 10 is complete control
[11] = Rate 250 g/ha, Pre-emergence, flood-test species, scale 0 to 10, 0 is no effect, 10 is complete control
[12] = Rate 500 g/ha, Pre-emergence, flood test species, scale 0 to 10 (0 no effect, 10 complete control)

CC(C)N(C(=O)n1oc(=O)n(C2CCOCC2)c1=O)c1ccc(F)cc1 [Compound 310]
Corn plant response rating (corn; [1]): 0
Corn plant response rating (0 to 10 scale) (corn; Preemergence, Rate 125 g/ha): 0
Corn plant response rating (corn; [2]): 0
Corn plant response rating (corn; [3]): 5
Corn plant response rating (corn; [4]): 0
Corn plant response rating (corn; [5]): 0
Plant response rating, Corn (corn; [6]): 0
Corn plant response rating (corn; [7]): 0
Velvetleaf plant response rating (velvetleaf; [1]): 2
Velvetleaf plant response rating (0 to 10 scale) (velvetleaf; Preemergence, Rate 125 g/ha): 3
Velvetleaf plant response rating (velvetleaf; [2]): 7
Velvetleaf plant response rating (velvetleaf; [3]): 8
Velvetleaf plant response rating (velvetleaf; [4]): 2
Velvetleaf plant response rating (velvetleaf; [5]): 3
Plant response rating, Velvetleaf (velvetleaf; [6]): 4
B. signalgrass plant response rating (surinam grass; [1]): 4
B. signalgrass plant response rating (0 to 10 scale, 0 is no effect, 10 is complete control) (surinam grass; Preemergence, Rate 125 g/ha): 4
B. signalgrass plant response rating (surinam grass; [2]): 7
B. signalgrass plant response rating (surinam grass; [3]): 8
B. signalgrass plant response rating (surinam grass; [4]): 2
B. signalgrass plant response rating (surinam grass; [5]): 3
Plant response rating, B. signalgrass (surinam grass; [6]): 7
B. signalgrass plant response rating (surinam grass; [7]): 7
Sugarbeets plant response rating (sugar beet; [1]): 5
Sugarbeets plant response rating (0 to 10 scale) (sugar beet; Preemergence, Rate 125 g/ha): 7
Sugarbeets plant response rating (sugar beet; [2]): 10
Sugarbeets plant response rating (sugar beet; [3]): 10
Sugarbeets plant response rating (sugar beet; [4]): 0
Sugarbeets plant response rating (sugar beet; [5]): 0
Plant response rating, Sugarbeets (sugar beet; [6]): 2
Bedstraw plant response rating (bedstraw; [1]): 2
Bedstraw plant response rating (0 to 10 scale) (bedstraw; Preemergence, Rate 125 g/ha): 3
Bedstraw plant response rating (bedstraw; [2]): 5
Bedstraw plant response rating (bedstraw; [3]): 10
Bedstraw plant response rating (bedstraw; [4]): 4
Bedstraw plant response rating (bedstraw; [5]): 4
Plant response rating, Bedstraw (bedstraw; [6]): 7
Bedstraw plant response rating (bedstraw; [7]): 5
Cocklebur plant response rating (cocklebur; [1]): 0
Cocklebur plant response rating (0 to 10 scale) (cocklebur; Preemergence, Rate 125 g/ha): 0
Cocklebur plant response rating (cocklebur; [2]): 2
Cocklebur plant response rating (cocklebur; [3]): 4
Cocklebur plant response rating (cocklebur; [4]): 0
Cocklebur plant response rating (cocklebur; [5]): 0
Plant response rating, Cocklebur (cocklebur; [6]): 2
Cocklebur plant response rating (cocklebur; [7]): 7
Barnyardgrass plant response rating (bamyardgrass; [8]): 6
Barnyardgrass plant response rating (bamyardgrass; [9]): 0
Barnyardgrass plant response rating (bamyardgrass; [10]): 0
Barnyardgrass plant response rating (bamyardgrass; [11]): 4
Barnyardgrass plant response rating (bamyardgrass; [12]): 7
Rape plant response rating (rape; [1]): 5
Rape plant response rating (0 to 10 scale) (rape; Preemergence, Rate 125 g/ha): 6
Rape plant response rating (rape; [2]): 10
Rape plant response rating (rape; [3]): 10
Rape plant response rating (rape; [4]): 0
Rape plant response rating (rape; [5]): 0
Plant response rating, Rape (rape; [6]): 0
Nutsedge plant response rating (purple nutsedge; [1]): 0
Nutsedge plant response rating (0 to 10 scale) (purple nutsedge; Preemergence, Rate 125 g/ha): 0
Nutsedge plant response rating (purple nutsedge; [2]): 10
Nutsedge plant response rating (purple nutsedge; [3]): 10
Nutsedge plant response rating (purple nutsedge; [4]): 2
Nutsedge plant response rating (purple nutsedge; [5]): 3
Plant response rating, Nutsedge (purple nutsedge; [6]): 6
Giant foxtail plant response rating (giant foxtail; [1]): 10
Giant foxtail plant response rating (0 to 10 scale) (giant foxtail; Preemergence, Rate 125 g/ha): 10
Giant foxtail plant response rating (giant foxtail; [2]): 10
Giant foxtail plant response rating (giant foxtail; [3]): 10
Giant foxtail plant response rating (giant foxtail; [4]): 7
Giant foxtail plant response rating (giant foxtail; [5]): 7
Plant response rating, Giant foxtail (giant foxtail; [6]): 8
Blackgrass plant response rating (blackgrass; [1]): 10
Blackgrass plant response rating (0 to 10 scale) (blackgrass; Preemergence, Rate 125 g/ha): 10
Blackgrass plant response rating (blackgrass; [2]): 10
Blackgrass plant response rating (blackgrass; [3]): 10
Blackgrass plant response rating (blackgrass; [4]): 5
Blackgrass plant response rating (blackgrass; [5]): 7
Plant response rating, Blackgrass (blackgrass; [6]): 9
Blackgrass plant response rating (blackgrass; [7]): 9
Morningglory plant response rating (morningglory; [1]): 2
Morningglory plant response rating (0 to 10 scale) (morningglory; Preemergence, Rate 125 g/ha): 6
Morningglory plant response rating (morningglory; [2]): 6
Morningglory plant response rating (morningglory; [3]): 8
Morningglory plant response rating (morningglory; [4]): 4
Morningglory plant response rating (morningglory; [5]): 5
Plant response rating, Morningglory (morningglory; [6]): 7
Ducksalad plant response rating (duck salad; [8]): 0
Ducksalad plant response rating (duck salad; [9]): 0
Ducksalad plant response rating (duck salad; [10]): 0
Ducksalad plant response rating (duck salad; [11]): 0
Ducksalad plant response rating (duck salad; [12]): 3
Redroot pigweed plant response rating (pigweed; [1]): 9
Redroot pigweed plant response rating (0 to 10 scale) (pigweed; Preemergence, Rate 125 g/ha): 10
Redroot pigweed plant response rating (pigweed; [2]): 10
Redroot pigweed plant response rating (pigweed; [3]): 10
Redroot pigweed plant response rating (pigweed; [4]): 0
Redroot pigweed plant response rating (pigweed; [5]): 0
Plant response rating, Redroot pigweed (pigweed; [6]): 3
Rice plant response rating (rice; [8]): 0
Rice plant response rating (rice; [9]): 0
Rice plant response rating (rice; [10]): 0
Rice plant response rating (rice; [11]): 0
Rice plant response rating (rice; [12]): 0
